Results as given in ChEMBL document CHEMBL4699401, “Argininamide-type neuropeptide Y Y1 receptor antagonists: the nature of Nomega-carbamoyl substituents determines Y1R binding mode and affinity” (RSC Med Chem, 2020).

Experiments:
[1] = molecular target: T1, Neuropeptide Y receptor type 1 (Homo sapiens, UniProt P25929); experiment: Displacement of [3H]UR-MK299 from Y1 receptor in human SK-N-MC cells by radioligand binding assay; format: cell-based
T1 sequence (P25929 whole entry): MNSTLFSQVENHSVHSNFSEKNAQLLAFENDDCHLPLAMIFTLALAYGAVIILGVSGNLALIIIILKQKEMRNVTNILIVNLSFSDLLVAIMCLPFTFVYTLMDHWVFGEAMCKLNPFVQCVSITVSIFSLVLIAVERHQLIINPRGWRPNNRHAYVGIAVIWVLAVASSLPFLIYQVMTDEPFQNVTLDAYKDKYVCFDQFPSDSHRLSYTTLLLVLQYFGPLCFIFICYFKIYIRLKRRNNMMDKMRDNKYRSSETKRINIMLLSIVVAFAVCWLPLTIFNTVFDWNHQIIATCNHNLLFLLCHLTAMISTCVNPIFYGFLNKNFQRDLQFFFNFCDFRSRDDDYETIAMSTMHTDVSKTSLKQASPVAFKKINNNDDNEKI

[2] = molecular target: T1, Neuropeptide Y receptor type 1; experiment: Antagonist activity at Y1 receptor in human HEL cells assessed as reduction in pNPY-induced calcium mobilization preincubated for 15 mins followed by pNPY stimulation and measured immediately by Fura-2 dye based fluorescence assay; format: functional, cell-based
[3] = molecular target: T2, Neuropeptide Y receptor type 1 (Homo sapiens) (UniProt P25929); conditions: HEL, filed as antagonist, time 15.0 min
T2 sequence (whole entry): T1 sequence (P25929 whole entry)

| SMILES | Ki [1] [nM] | IC50 [2] [nM] | pKb [3] |
| --- | --- | --- | --- |
| N/C(=N/C(=O)NCCNC(=O)c1ccccc1)NCCC[C@@H](NC(=O)C(c1ccccc1)c1ccccc1)C(=O)NCc1ccc(O)cc1 | 56.2 | 11.5 | 8.82 |
| N/C(=N/C(=O)NCCNC(=O)C(F)(F)F)NCCC[C@@H](NC(=O)C(c1ccccc1)c1ccccc1)C(=O)NCc1ccc(O)cc1 | 0.0708 | 0.126 | – |
| N/C(=N/C(=O)NCCNC(=O)C1CCCCC1)NCCC[C@@H](NC(=O)C(c1ccccc1)c1ccccc1)C(=O)NCc1ccc(O)cc1 | 380 | 30.9 | 8.39 |
| C=CC(=O)NCCNC(=O)/N=C(/N)NCCC[C@@H](NC(=O)C(c1ccccc1)c1ccccc1)C(=O)NCc1ccc(O)cc1 | 0.112 | 0.186 | 10.6 |
| CC(=O)NCCNC(=O)/N=C(/N)NCCC[C@@H](NC(=O)C(c1ccccc1)c1ccccc1)C(=O)NCc1ccc(O)cc1 | 0.0589 | – | – |
| N/C(=N/C(=O)NCCNC(=O)C1CC1)NCCC[C@@H](NC(=O)C(c1ccccc1)c1ccccc1)C(=O)NCc1ccc(O)cc1 | 1.17 | 0.24 | 10.5 |
| CC(C)C(=O)NCCNC(=O)/N=C(/N)NCCC[C@@H](NC(=O)C(c1ccccc1)c1ccccc1)C(=O)NCc1ccc(O)cc1 | 0.309 | 0.0661 | 11.1 |
| CC(=O)NCCCNC(=O)/N=C(/N)NCCC[C@@H](NC(=O)C(c1ccccc1)c1ccccc1)C(=O)NCc1ccc(O)cc1 | 0.0631 | – | – |
| N/C(=N/C(=O)NCCNC(=O)C(F)F)NCCC[C@@H](NC(=O)C(c1ccccc1)c1ccccc1)C(=O)NCc1ccc(O)cc1 | 0.0676 | 0.11 | – |
| Cc1cc(/C=C/C=C/c2ccc(N(C)C)cc2)cc(C)[n+]1CCNC(=O)/N=C(/N)NCCC[C@@H](NC(=O)C(c1ccccc1)c1ccccc1)C(=O)NCc1ccc(O)cc1 | 102 | – | – |
| N/C(=N/C(=O)NCCNC(=O)C(c1ccccc1)c1ccccc1)NCCC[C@@H](NC(=O)C(c1ccccc1)c1ccccc1)C(=O)NCc1ccc(O)cc1 | 295 | 525 | 7.16 |
| N/C(=N/C(=O)NCCNC(=O)CF)NCCC[C@@H](NC(=O)C(c1ccccc1)c1ccccc1)C(=O)NCc1ccc(O)cc1 | 0.0316 | 0.055 | – |
| N/C(=N/C(=O)NCCNC(=O)CCl)NCCC[C@@H](NC(=O)C(c1ccccc1)c1ccccc1)C(=O)NCc1ccc(O)cc1 | 0.0525 | 0.0794 | – |
| N/C(=N/C(=O)NCCNC(=O)CBr)NCCC[C@@H](NC(=O)C(c1ccccc1)c1ccccc1)C(=O)NCc1ccc(O)cc1 | 0.126 | 0.0617 | 11.1 |
| CCC(=O)NCCCNC(=O)/N=C(/N)NCCC[C@@H](NC(=O)C(c1ccccc1)c1ccccc1)C(=O)NCc1ccc(O)cc1 | 0.0741 | – | – |
| CC(C)(C)C(=O)NCCNC(=O)/N=C(/N)NCCC[C@@H](NC(=O)C(c1ccccc1)c1ccccc1)C(=O)NCc1ccc(O)cc1 | 45.7 | 14.5 | 8.71 |
| N/C(=N/C(=O)NCCNC(=O)Cc1ccccc1)NCCC[C@@H](NC(=O)C(c1ccccc1)c1ccccc1)C(=O)NCc1ccc(O)cc1 | 302 | 95.5 | 7.9 |
| N/C(=N/C(=O)NCCNC(=O)C1CCC1)NCCC[C@@H](NC(=O)C(c1ccccc1)c1ccccc1)C(=O)NCc1ccc(O)cc1 | 1.1 | 0.24 | 10.5 |
| N/C(=N/C(=O)NCCNC(=O)CO)NCCC[C@@H](NC(=O)C(c1ccccc1)c1ccccc1)C(=O)NCc1ccc(O)cc1 | 0.145 | 0.0912 | 10.9 |
| N/C(=N/C(=O)NCCNC(=O)C1CCCC1)NCCC[C@@H](NC(=O)C(c1ccccc1)c1ccccc1)C(=O)NCc1ccc(O)cc1 | 52.5 | 7.59 | 9 |
| N/C(=N/C(=O)NCCNC(=O)c1ccc(F)cc1)NCCC[C@@H](NC(=O)C(c1ccccc1)c1ccccc1)C(=O)NCc1ccc(O)cc1 | 295 | 16.2 | 8.67 |
| N/C(=N/C(=O)NCCNC(=O)CCCl)NCCC[C@@H](NC(=O)C(c1ccccc1)c1ccccc1)C(=O)NCc1ccc(O)cc1 | 0.38 | 0.589 | – |
